Biological target: T1, BRM (Homo sapiens, UniProt P51531)
T1 construct: In-Cell Western Screen of BRM Degradation in SW1573 Cells; endogenous in cells; host or cells: SW1573
Assay: In-cell Western screen of BRM degradation in SW1573 cells (Dmax and DC50)
Type: cell-based
Details: for Dmax: SW1573, read-out: BRM Dmax (%); for Dmax / BRM Dmax (%): % degraded, when tested at the top concentration of between 0.3 and 10 μM; for DC50: target protein degradation, read-out: BRM DC50
Outline: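 After adhering overnight, cells received compound for 18-20 hours. They were then washed in cold DPBS, fixed with 4% PFA for 20 min and permeabilized for 30 min. Blocking and fluorescent secondary staining followed before imaging.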

T1 sequence (P51531 whole entry): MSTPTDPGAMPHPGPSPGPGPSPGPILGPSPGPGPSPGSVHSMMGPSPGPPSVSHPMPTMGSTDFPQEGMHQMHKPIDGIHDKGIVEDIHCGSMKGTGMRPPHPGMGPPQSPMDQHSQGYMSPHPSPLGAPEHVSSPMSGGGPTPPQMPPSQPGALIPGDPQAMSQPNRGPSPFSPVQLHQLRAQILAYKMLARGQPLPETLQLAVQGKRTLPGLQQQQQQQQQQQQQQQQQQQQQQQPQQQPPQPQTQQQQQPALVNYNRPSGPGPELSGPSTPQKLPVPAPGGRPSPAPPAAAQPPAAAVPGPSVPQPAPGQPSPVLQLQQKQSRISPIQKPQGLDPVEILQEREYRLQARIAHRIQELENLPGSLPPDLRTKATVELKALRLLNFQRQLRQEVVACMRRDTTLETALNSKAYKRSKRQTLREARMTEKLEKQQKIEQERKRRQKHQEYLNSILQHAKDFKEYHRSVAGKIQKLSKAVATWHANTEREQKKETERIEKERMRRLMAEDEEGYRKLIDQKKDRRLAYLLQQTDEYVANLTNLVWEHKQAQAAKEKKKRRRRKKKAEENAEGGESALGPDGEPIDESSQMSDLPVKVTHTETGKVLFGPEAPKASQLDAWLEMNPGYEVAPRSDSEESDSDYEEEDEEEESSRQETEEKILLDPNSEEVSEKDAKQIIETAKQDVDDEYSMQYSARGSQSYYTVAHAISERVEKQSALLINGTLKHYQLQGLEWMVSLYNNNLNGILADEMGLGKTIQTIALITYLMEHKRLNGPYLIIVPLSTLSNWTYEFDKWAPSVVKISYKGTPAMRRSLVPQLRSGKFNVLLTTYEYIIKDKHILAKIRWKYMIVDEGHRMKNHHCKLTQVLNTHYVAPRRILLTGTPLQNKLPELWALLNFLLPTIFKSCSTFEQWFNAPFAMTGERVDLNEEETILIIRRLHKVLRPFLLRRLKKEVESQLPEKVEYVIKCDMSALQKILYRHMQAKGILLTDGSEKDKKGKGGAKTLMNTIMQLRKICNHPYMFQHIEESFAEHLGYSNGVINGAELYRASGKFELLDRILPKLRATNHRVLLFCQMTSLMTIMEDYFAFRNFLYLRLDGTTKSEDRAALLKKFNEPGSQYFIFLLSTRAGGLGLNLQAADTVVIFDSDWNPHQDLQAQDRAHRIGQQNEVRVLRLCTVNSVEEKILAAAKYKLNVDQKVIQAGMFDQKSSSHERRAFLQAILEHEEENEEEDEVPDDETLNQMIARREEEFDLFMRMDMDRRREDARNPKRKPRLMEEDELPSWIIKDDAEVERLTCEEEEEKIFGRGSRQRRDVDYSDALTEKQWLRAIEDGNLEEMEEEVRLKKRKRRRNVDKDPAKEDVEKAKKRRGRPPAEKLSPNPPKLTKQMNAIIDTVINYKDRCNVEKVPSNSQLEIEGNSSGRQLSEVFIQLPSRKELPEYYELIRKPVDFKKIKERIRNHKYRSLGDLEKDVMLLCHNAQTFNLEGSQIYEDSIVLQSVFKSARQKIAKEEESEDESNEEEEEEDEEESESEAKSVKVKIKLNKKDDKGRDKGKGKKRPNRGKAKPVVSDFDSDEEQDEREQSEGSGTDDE

| Structure (SMILES) | Dmax | DC50 | BRM Dmax (%) |
| --- | --- | --- | --- |
| CC(C)[C@H](C(=O)N1C[C@H](O)C[C@H]1C(=O)N[C@@H](C)c1ccc(-n2ccccc2=O)cc1)c1cc(OCCN2CCC(O[C@H]3C[C@H](Oc4cc(N5C6CCC5CN(c5cc(-c7ccccc7O)nnc5N)C6)ccn4)C3)CC2)no1 [compound 372, (2S,4R)-1-((2S)-2-(3-(2-(4-((1r,3S)-3-((4-(3-(3-amino-6-(2-hydroxyphenyl)pyridazin-4-yl)-3,8-diazabicyclo[3.2.1]octan-8-yl)pyridin-2-yl)oxy)cyclobutoxy)piperidin-1-yl)ethoxy)isoxazol-5-yl)-3-methylbutanoyl)-4-hydroxy-N-((S)-1-(4-(2-oxopyridin-1(2H)-yl)phenyl)ethyl)pyrrolidine-2-carboxamide] | > 75% | > 30 nM |  |
| CC(C)[C@@H](C(=O)N1C[C@H](O)C[C@H]1C(=O)N[C@@H](C)c1ccc(-n2ccccc2=O)cc1)c1cc(OCCN2CCC(O[C@H]3C[C@H](Oc4cc(N5C6CCC5CN(c5cc(-c7ccccc7O)nnc5N)C6)ccn4)C3)CC2)no1 [compound 373, (2S,4R)-1-((2R)-2-(3-(2-(4-((1r,3R)-3-((4-(3-(3-amino-6-(2-hydroxyphenyl)pyridazin-4-yl)-3,8-diazabicyclo[3.2.1]octan-8-yl)pyridin-2-yl)oxy)cyclobutoxy)piperidin-1-yl)ethoxy)isoxazol-5-yl)-3-methylbutanoyl)-4-hydroxy-N-((S)-1-(4-(2-oxopyridin-1(2H)-yl)phenyl)ethyl)pyrrolidine-2-carboxamide] |  | > 30 nM |  |
| Cc1ncsc1-c1ccc([C@H](C)NC(=O)[C@@H]2C[C@@H](O)CN2C(=O)[C@@H](c2cc(OCCN3CCC(N4CC(Oc5cc(N6C7CCC6CN(c6cc(-c8ccccc8O)nnc6N)C7)ccn5)C4)CC3)no2)C(C)C)cc1 [compound 374, (2S,4R)-1-((2R)-2-(3-(2-(4-(3-((4-(3-(3-amino-6-(2-hydroxyphenyl)pyridazin-4-yl)-3,8-diazabicyclo[3.2.1]octan-8-yl)pyridin-2-yl)oxy)azetidin-1-yl)piperidin-1-yl)ethoxy)isoxazol-5-yl)-3-methylbutanoyl)-4-hydroxy-N-((S)-1-(4-(4-methylthiazol-5-yl)phenyl)ethyl)pyrrolidine-2-carboxamide] | > 75% | > 30 nM |  |
| Cc1cnc(C)n1-c1ccc([C@H](C)NC(=O)[C@@H]2C[C@@H](O)CN2C(=O)[C@H](c2cc(OCCN3CCC(O[C@H]4C[C@H](Oc5cc(N6C7CCC6CN(c6cc(-c8ccccc8O)nnc6N)C7)ccn5)C4)CC3)no2)C(C)C)cc1 [compound 375, (2S,4R)-1-((2S)-2-(3-(2-(4-((1r,3S)-3-((4-(3-(3-amino-6-(2-hydroxyphenyl)pyridazin-4-yl)-3,8-diazabicyclo[3.2.1]octan-8-yl)pyridin-2-yl)oxy)cyclobutoxy)piperidin-1-yl)ethoxy)isoxazol-5-yl)-3-methylbutanoyl)-N-((S)-1-(4-(2,5-dimethyl-1H-imidazol-1-yl)phenyl)ethyl)-4-hydroxypyrrolidine-2-carboxamide] |  | > 30 nM |  |
| Cc1cnc(C)n1-c1ccc([C@H](C)NC(=O)[C@@H]2C[C@@H](O)CN2C(=O)[C@@H](c2cc(OCCN3CCC(O[C@H]4C[C@H](Oc5cc(N6C7CCC6CN(c6cc(-c8ccccc8O)nnc6N)C7)ccn5)C4)CC3)no2)C(C)C)cc1 [compound 376, (2S,4R)-1-((2R)-2-(3-(2-(4-((1r,3R)-3-((4-(3-(3-amino-6-(2-hydroxyphenyl)pyridazin-4-yl)-3,8-diazabicyclo[3.2.1]octan-8-yl)pyridin-2-yl)oxy)cyclobutoxy)piperidin-1-yl)ethoxy)isoxazol-5-yl)-3-methylbutanoyl)-N-((S)-1-(4-(2,5-dimethyl-1H-imidazol-1-yl)phenyl)ethyl)-4-hydroxypyrrolidine-2-carboxamide] | > 75% | 10 to 30 nM |  |
| Cc1n[nH]c(C)c1-c1ccc([C@H](C)NC(=O)[C@@H]2C[C@@H](O)CN2C(=O)[C@H](c2cc(OCCN3CCC(O[C@H]4C[C@H](Oc5cc(N6C7CCC6CN(c6cc(-c8ccccc8O)nnc6N)C7)ccn5)C4)CC3)no2)C(C)C)cc1 [compound 377, (2S,4R)-1-((2S)-2-(3-(2-(4-((1r,3S)-3-((4-(3-(3-amino-6-(2-hydroxyphenyl)pyridazin-4-yl)-3,8-diazabicyclo[3.2.1]octan-8-yl)pyridin-2-yl)oxy)cyclobutoxy)piperidin-1-yl)ethoxy)isoxazol-5-yl)-3-methylbutanoyl)-N-((S)-1-(4-(3,5-dimethyl-1H-pyrazol-4-yl)phenyl)ethyl)-4-hydroxypyrrolidine-2-carboxamide] | > 75% | 10 to 30 nM |  |
| Cc1n[nH]c(C)c1-c1ccc([C@H](C)NC(=O)[C@@H]2C[C@@H](O)CN2C(=O)[C@@H](c2cc(OCCN3CCC(O[C@H]4C[C@H](Oc5cc(N6C7CCC6CN(c6cc(-c8ccccc8O)nnc6N)C7)ccn5)C4)CC3)no2)C(C)C)cc1 [compound 378, (2S,4R)-1-((2R)-2-(3-(2-(4-((1r,3R)-3-((4-(3-(3-amino-6-(2-hydroxyphenyl)pyridazin-4-yl)-3,8-diazabicyclo[3.2.1]octan-8-yl)pyridin-2-yl)oxy)cyclobutoxy)piperidin-1-yl)ethoxy)isoxazol-5-yl)-3-methylbutanoyl)-N-((S)-1-(4-(3,5-dimethyl-1H-pyrazol-4-yl)phenyl)ethyl)-4-hydroxypyrrolidine-2-carboxamide] | > 75% | < 2.5 nM |  |
| Cc1ncsc1-c1ccc([C@H](C)NC(=O)[C@@H]2C[C@@H](O)CN2C(=O)[C@H](c2cc(C#CCN3CCC(OC4CC(Oc5cc(N6C7CC[C@@H]6CN(c6cc(-c8ccccc8O)nnc6N)C7)ccn5)C4)CC3)no2)C(C)C)cc1 (stereo partly drawn) [compound 379, (2S,4R)-1-((2S)-2-(3-(3-(4-((1r,3S)-3-((4-(3-(3-amino-6-(2-hydroxyphenyl)pyridazin-4-yl)-3,8-diazabicyclo[3.2.1]octan-8-yl)pyridin-2-yl)oxy)cyclobutoxy)piperidin-1-yl)prop-1-yn-1-yl)isoxazol-5-yl)-3-methylbutanoyl)-4-hydroxy-N-((S)-1-(4-(4-methylthiazol-5-yl)phenyl)ethyl)pyrrolidine-2-carboxamide] |  | > 30 nM |  |
| Cc1ncsc1-c1ccc([C@H](C)NC(=O)[C@@H]2C[C@@H](O)CN2C(=O)[C@@H](c2cc(C#CCN3CCC(O[C@H]4C[C@H](Oc5cc(N6C7CCC6CN(c6cc(-c8ccccc8O)nnc6N)C7)ccn5)C4)CC3)no2)C(C)C)cc1 [compound 380, (2S,4R)-1-((2R)-2-(3-(3-(4-((1r,3R)-3-((4-(3-(3-amino-6-(2-hydroxyphenyl)pyridazin-4-yl)-3,8-diazabicyclo[3.2.1]octan-8-yl)pyridin-2-yl)oxy)cyclobutoxy)piperidin-1-yl)prop-1-yn-1-yl)isoxazol-5-yl)-3-methylbutanoyl)-4-hydroxy-N-((S)-1-(4-(4-methylthiazol-5-yl)phenyl)ethyl)pyrrolidine-2-carboxamide] | > 75% | < 2.5 nM |  |
| Cc1ncsc1-c1ccc([C@H](C)NC(=O)[C@@H]2C[C@@H](O)CN2C(=O)[C@H](c2cc(OCC#CC34CC(CNC5CC(Oc6cc(N7C8CC[C@@H]7CN(c7cc(-c9ccccc9O)nnc7N)C8)ccn6)C5)(C3)C4)no2)C(C)C)cc1 (stereo partly drawn) [compound 381, (2S,4R)-1-((2S)-2-(3-((3-(3-((((1r,3S)-3-((4-(3-(3-amino-6-(2-hydroxyphenyl)pyridazin-4-yl)-3,8-diazabicyclo[3.2.1]octan-8-yl)pyridin-2-yl)oxy)cyclobutyl)amino)methyl)bicyclo[1.1.1]pentan-1-yl)prop-2-yn-1-yl)oxy)isoxazol-5-yl)-3-methylbutanoyl)-4-hydroxy-N-((S)-1-(4-(4-methylthiazol-5-yl)phenyl)ethyl)pyrrolidine-2-carboxamide] |  | 10 to 30 nM | A (A > 75) |
| Cc1ncsc1-c1ccc([C@H](C)NC(=O)[C@@H]2C[C@@H](O)CN2C(=O)[C@@H](c2cc(OCC#CC34CC(CN[C@H]5C[C@H](Oc6cc(N7C8CC[C@@H]7CN(c7cc(-c9ccccc9O)nnc7N)C8)ccn6)C5)(C3)C4)no2)C(C)C)cc1 [compound 382, (2S,4R)-1-((2R)-2-(3-((3-(3-((((1r,3R)-3-((4-(3-(3-amino-6-(2-hydroxyphenyl)pyridazin-4-yl)-3,8-diazabicyclo[3.2.1]octan-8-yl)pyridin-2-yl)oxy)cyclobutyl)amino)methyl)bicyclo[1.1.1]pentan-1-yl)prop-2-yn-1-yl)oxy)isoxazol-5-yl)-3-methylbutanoyl)-4-hydroxy-N-((S)-1-(4-(4-methylthiazol-5-yl)phenyl)ethyl)pyrrolidine-2-carboxamide] |  | < 2.5 nM | A (A > 75) |
| Cc1ncsc1-c1ccc([C@H](C)NC(=O)[C@@H]2C[C@@H](O)CN2C(=O)[C@@H](c2cc(OCC#CC34CC(CN5CC(Oc6cc(N7C8CCC7CN(c7cc(-c9ccccc9O)nnc7N)C8)ccn6)C5)(C3)C4)no2)C(C)C)cc1 [compound 383, (2S,4R)-1-((2R)-2-(3-((3-(3-((3-((4-(3-(3-amino-6-(2-hydroxyphenyl)pyridazin-4-yl)-3,8-diazabicyclo[3.2.1]octan-8-yl)pyridin-2-yl)oxy)azetidin-1-yl)methyl)bicyclo[1.1.1]pentan-1-yl)prop-2-yn-1-yl)oxy)isoxazol-5-yl)-3-methylbutanoyl)-4-hydroxy-N-((S)-1-(4-(4-methylthiazol-5-yl)phenyl)ethyl)pyrrolidine-2-carboxamide] | > 75% | > 30 nM |  |
| Cc1ncsc1-c1ccc([C@H](C)NC(=O)[C@@H]2C[C@@H](O)CN2C(=O)[C@H](c2cc(OCCCN3CCN(CCCOc4cc(N5C6CCC5CN(c5cc(-c7ccccc7O)nnc5N)C6)ccn4)CC3)no2)C(C)C)cc1 [compound 384, (2S,4R)-1-((2S)-2-(3-(3-(4-(3-((4-(3-(3-amino-6-(2-hydroxyphenyl)pyridazin-4-yl)-3,8-diazabicyclo[3.2.1]octan-8-yl)pyridin-2-yl)oxy)propyl)piperazin-1-yl)propoxy)isoxazol-5-yl)-3-methylbutanoyl)-4-hydroxy-N-((S)-1-(4-(4-methylthiazol-5-yl)phenyl)ethyl)pyrrolidine-2-carboxamide] | > 75% | 2.5 to 10 nM |  |

Reference: patent publication US12539292B2, “BRM targeting compounds and associated methods of use” (Arvinas Operations, Inc., priority 2018, dated 2026)
